Assays:
Type in all cases: functional, cell-based
U-937 = assay: Cytotoxicity against human U937 cells after 48 hrs by MTT assay; conditions: U-937, 48 h
[1] = Cytotoxicity against human A375-S2 cells after 48 hrs by MTT assay; conditions: A375-S2, 48 h
HCT-116 = assay: Cytotoxicity against human HCT116 cells after 48 hrs by MTT assay; conditions: HCT-116, 48 h
A549 = assay: Cytotoxicity against human A549 cells after 48 hrs by MTT assay; conditions: A549, 48 h
HeLa = assay: Cytotoxicity against human HeLa cells after 48 hrs by MTT assay
K562 = assay: Cytotoxicity against human K562 cells after 48 hrs by MTT assay; conditions: K562, 48 h
HT-1080 = assay: Cytotoxicity against human HT1080 cells after 48 hrs by MTT assay; conditions: HT-1080, 48 h
HL-60 = assay: Cytotoxicity against human HL60 cells after 48 hrs by MTT assay; conditions: HL-60, 48 h
HepG2 = assay: Cytotoxicity against human HepG2 cells after 48 hrs by MTT assay; conditions: HepG2, 48 h
MCF7 = assay: Cytotoxicity against human MCF7 cells after 48 hrs by MTT assay; conditions: MCF7, 48 h

Compound | IC50 (U-937) [µM] | IC50 [1] [µM] | IC50 (HCT-116) [µM] | IC50 (A549) [µM] | IC50 (HeLa) [µM] | IC50 (K562) [µM] | IC50 (HT-1080) [µM] | IC50 (HL-60) [µM] | IC50 (HepG2) [µM] | IC50 (MCF7) [µM]
C=C(C)[C@@]12OC3(c4ccccc4)O[C@@H]1[C@@H]1[C@H](O)[C@](O)(CO)[C@@H](O)[C@]4(O)C(=O)[C@@H](C)C=C4[C@@]1(O3)[C@H](C)[C@H]2OC(=O)c1ccccc1 | 29.9 | 14.3 | > 50 | 26.9 | 24.8 | 46.9 | 16.1 | 27.7 | 27.9 | 33.7
C=C(C)[C@]12C[C@@H](C)[C@@]34O[C@@]5(CCCCCCC[C@@H](C)[C@H]6[C@H](C)[C@H](O)[C@@](O)([C@H](O)[C@@]7(COC(=O)c8ccccc8)O[C@H]7[C@H]3[C@H]1O5)[C@@H]64)O2 | 16.5 | 29.4 | 28.9 | 18.8 | > 50 | 18.7 | 9.56 | 18.1 | 11.3 | 19.9
C=C(C)[C@]12C[C@@H](C)[C@@]34OC5(CCCCCCC[C@@H](C)[C@H]6[C@H](C)[C@H](O)[C@@](O)([C@H](O)[C@@](O)(COC(=O)c7ccccc7)[C@@H](O)[C@H]3[C@H]1O5)[C@@H]64)O2 | > 50 | 28.6 | > 50 | 45 | 25.2 | > 50 | 7.71 | > 50 | 28.6 | > 50
C=C(C)[C@@]12OC3(/C=C/C=C/CCCCC)O[C@@H]1[C@@H]1[C@@H]4O[C@]4(CO)[C@@H](O)[C@]4(O)C(=O)C(C)=C[C@H]4[C@@]1(O3)[C@H](C)[C@H]2OC(=O)C(C)C | 27.6 | 24.9 | 25.2 | 23.1 | > 50 | 5.11 | 4.55 | 30 | 17.8 | 20.8
C=C(C)[C@]12C[C@@H](C)[C@]34OC5(CCCCCCC[C@H](C)[C@@H]6[C@@H]3[C@]3(O[C@]6(C)OC3=O)[C@H](O)[C@@]3(CO)O[C@H]3[C@H]4[C@H]1O5)O2 | > 50 | > 50 | 36 | 35.7 | 28.1 | > 50 | 0.83 | > 50 | 28.1 | 20.3
C=C(C)[C@]12C[C@@H](C)[C@]34OC5(CCCCCCC[C@@H](C)[C@@H]6[C@@H]3[C@]3(O[C@]6(C)OC3=O)[C@H](O)[C@@]3(CO)O[C@H]3[C@H]4[C@H]1O5)O2 | 22.9 | 23 | 26.5 | > 50 | 23.2 | 26.3 | 20.8 | 34.1 | 25.2 | 7.36
C=C(C)[C@@]12O[C@@]3(c4ccccc4)O[C@@H]1[C@@H]1[C@@H]4O[C@]4(CO)[C@@H](O)[C@]4(O)C(=O)C(C)=C[C@H]4[C@@]1(O3)[C@H](C)[C@H]2OC(C)=O | > 50 | > 50 | 37.5 | > 50 | 42.4 | > 50 | < 0.1 | > 50 | > 50 | > 50
C=C(C)[C@@]12O[C@@]3(c4ccccc4)O[C@@H]1[C@@H]1[C@@H]4O[C@]4(CO)[C@@H](O)[C@]4(O)C(=O)C(C)=C[C@H]4[C@@]1(O3)[C@H](C)[C@H]2OC(=O)c1ccccc1 | 13.2 | 16.9 | 29.3 | 19.1 | 19.1 | 22.5 | < 0.1 | 24.4 | 24.1 | 2.36
C=C(C)[C@@]12OC3(/C=C/C=C/CCCCC)O[C@@H]1[C@@H]1[C@@H]4O[C@]4(CO)[C@@H](O)[C@]4(O)C(=O)C(C)=C[C@H]4[C@@]1(O3)[C@H](C)[C@H]2OC(=O)CC | 27.4 | > 50 | 46.8 | 18.8 | 25.5 | 29.4 | 28.8 | 22.7 | 13.5 | > 50
C=C(C)[C@@]12O[C@@]3(c4ccccc4)O[C@@H]1[C@@H]1[C@@H]4O[C@]4(CO)[C@@H](O)[C@]4(O)C(=O)[C@@H](C)C[C@H]4[C@@]1(O3)[C@H](C)[C@H]2OC(C)=O | > 50 | 14.2 | > 50 | > 50 | 50 | > 50 | < 0.1 | > 50 | > 50 | 23.6
C=C(C)[C@@]12O[C@@]3(c4ccccc4)O[C@@H]1[C@@H]1[C@@H]4O[C@]4(CO)[C@@H](O)[C@]4(O)C(=O)[C@@H](C)C[C@H]4[C@@]1(O3)[C@H](C)[C@H]2OC(=O)c1ccccc1 | 12.3 | 9.31 | 24.9 | 12.5 | 20.3 | 24.6 | 14.3 | 26 | 24.1 | 0.37
C=C(C)[C@]12C[C@@H](C)[C@@]34OC(c5ccccc5)(OC1[C@@H]3[C@@H]1O[C@]1(COC(=O)c1ccccc1)[C@@H](O)[C@@]1(O)[C@H]4C[C@H](C)[C@@H]1O)O2 | 18.1 | 3.62 | 28.1 | 23.4 | 20.2 | 20.2 | < 0.1 | 30.9 | 29.9 | 25.3
C=C(C)[C@]12C[C@@H](C)[C@@]34OC(c5ccccc5)(O[C@@H]1[C@@H]3[C@H](O)[C@](O)(COC(=O)/C=C/C=C/CCCCC)[C@@H](O)[C@@]1(O)[C@H]4C[C@H](C)[C@@H]1O)O2 | 23.8 | 25.4 | 27.4 | 22.3 | 26.2 | 24.2 | 29.9 | 20.5 | 22.7 | > 50
C=C(C)[C@]1(O)C[C@@H](C)[C@@]2(O)[C@H]([C@H]1OC(=O)c1ccccc1)[C@H](O)[C@](O)(COC(=O)/C=C/C=C/CCCCC)[C@@H](O)[C@@]1(O)[C@H]2C[C@H](C)[C@@H]1O | 15.6 | 23.7 | 35.8 | 20.9 | 21.1 | 24.5 | 22.9 | 10.1 | 17.9 | > 50
O=c1[nH]cc(F)c(=O)[nH]1 [FLUOROURACIL] | 23.9 | 6.67 | 27.8 | 44.1 | 7.34 | 23.6 | 35.6 | 10.1 | 40.3 | 11.5
C=C(C)[C@@]12O[C@@]3(/C=C/C=C/CCCCC)O[C@@H]1[C@@H]1[C@@H]4O[C@]4(CO)[C@@H](O)[C@]4(O)C(=O)C(C)=C[C@H]4[C@@]1(O3)[C@H](C)[C@H]2OC(=O)c1ccccc1 [GNIDILATIDIN] | 11.8 | 8.72 | 23 | 13.1 | 5.56 | 16.1 | 2.02 | 26.8 | 8.04 | 2.39
C=C(C)[C@@]12OC3(/C=C/C=C\CCCCC)O[C@@H]1[C@@H]1[C@@H]4O[C@]4(CO)[C@@H](O)[C@]4(O)C(=O)C(C)=C[C@H]4[C@@]1(O3)[C@H](C)[C@H]2OC(C)=O [ISOYUANHUADINE] | 17.4 | 21.5 | 32.3 | 24.1 | 0.64 | 17.5 | 14.9 | 17.7 | 30 | 23.4
C=C(C)[C@]12C[C@@H](C)[C@@]34OC(c5ccccc5)(O[C@@H]1[C@@H]3[C@@H]1O[C@]1(CO)[C@@H](O)[C@@]1(O)[C@H]4C[C@H](C)[C@@H]1O)O2 [ORTHOBENZOATE] | > 50 | 47.2 | 49.9 | > 50 | 31.7 | 42.3 | 24.5 | > 50 | 48.9 | 12.4
C=C(C)[C@]12C[C@@H](C)[C@@]34OC5(CCCCCCC[C@H](C)[C@H]6[C@H](C)[C@H](OC(=O)c7ccccc7)[C@@](O)([C@H](O)[C@@]7(CO)O[C@H]7[C@H]3[C@H]1O5)[C@@H]64)O2 [PIMELEA FACTOR P2] | 16.7 | 25.7 | 19.6 | 17 | 18.3 | 25.2 | 13.2 | 17.9 | 19.1 | > 50
C=C(C)[C@]12C[C@@H](C)[C@@]34O[C@](CCCCCCCCC)(O[C@@H]1[C@@H]3[C@@H]1O[C@]1(CO)[C@@H](O)[C@]1(O)C(=O)C(C)=C[C@H]14)O2 [SIMPLEXIN] | > 50 | 10.7 | > 50 | 27 | 21.7 | > 50 | < 0.1 | > 50 | 38.8 | 25.4

— ChEMBL document CHEMBL2375331, “Daphnane-type diterpenes with inhibitory activities against human cancer cell lines from Daphne genkwa” (Bioorg Med Chem Lett, 2013)
